From patent US12123030B2, “Polynucleotides encoding lipoprotein lipase for the treatment of hyperlipidemia” (ModernaTX, Inc., priority 2016, dated 2024)

How the values were obtained:
[1] = tested on: triglycerides in HTG patients; conditions: existing HTG treatments; cited from earlier work
triglycerides = conditions: existing hyperlipidemia treatment, patients; cited from earlier work
IP-10 = assay: Cytokine expression after nanoparticle compositions: IP-10; type: in vivo; conditions: 6 h; nanoparticle composition including the compound
ffluc = assay: Average total flux (ffluc) from nanoparticle compositions; type: in vivo; conditions: 6 h
IL-6 = assay: Cytokine expression after nanoparticle compositions: IL-6; type: in vivo; conditions: 6 h; nanoparticle composition including the compound
hEPO = hEPO expression from nanoparticle compositions; type: in vivo; conditions: for hEPO expression: nanoparticle composition including the compound; for Average hEPO concentration: Table 9
adult rat = assay: Dose range finding (DRF) study in adult rat; type: in vivo; conditions: one month, one dose per week (5 total doses)
Experimental: (§1) Dose range finding (DRF) studies using surrogate Compound 18 are in progress to further examine the Compound 18 programs. One month of a DRF study, consisting of one dose per week (5 total doses) in adult rat was performed in order to measure hematology, clinical chemistry, and full pathology. […] Additionally, one month of GLP dose studies, consisting of five doses (one per week) via IV infusion will be administered to rats in order to examine safety pharmacology measures, including central nervous system (rats) and cardiovascular system (monkeys), such as heart rate, blood pressure, and EKG readings. Furthermore, gene toxicity studies were be undertaken, in vitro, using a 4 strain Ames test, and in vitro micronucleous hPBMCs. […] An in vivo mouse micronucleus assay will also be performed to further investigate the Compound 18/5-methoxy uridine (mo5U) modification chemistry.

4 strain Ames test = assay: 4 strain Ames test; type: cell-based; conditions: in vitro
Experimental: as §1

Cytokine expression IP-10 (IP-10) [pg/mL]	Cytokine expression IL-6 (IL-6) [pg/mL]	clinical chemistry (adult rat)	SMILES	reduction in triglycerides [1]	reduction in triglycerides (triglycerides)	Average total flux (ffluc)	hEPO expression (hEPO; 3 h) [pg/mL]	Average hEPO concentration (hEPO; 6 h) [pg/mL]	hEPO expression (hEPO; 24 h) [pg/mL]	adverse events (adult rat)	mutagenic potential (Ames data) (4 strain Ames test)	hEPO expression (hEPO; 6 h) [pg/mL]
			O=C(O)c1cccnc1 [Nicotinic acid]	15-25%	15-25%							
116.66	10.15		CCCCC/C=C\C/C=C\CCCCCCCCN(CCO)CCCCCCCC(=O)OC(CCCCCCCC)CCCCCCCC [Compound 6]			7.60 × 10^9						
299.93	10.16	normal	CCCCCCCCCOC(=O)CCCCCCCN(CCO)CCCCCCCC(=O)OC(CCCCCCCC)CCCCCCCC [Compound 18, Heptadecan-9-yl 8-((2-hydroxyethyl)(8-(nonyloxy)-8-oxooctyl)amino) octanoate]				3e+06	3.38e+06	1.8e+06	No adverse events were reported	does not have mutagenic potential	
117.94	19.85		CCCCC/C=C\C/C=C\CCCCCCCCC(CCCCCCCC/C=C\C/C=C\CCCCC)OC(=O)CCCN(C)C [MC3]			6.59 × 10^9	1.57e+06	1.83e+06	810000			1.83e+06
